# Source: US4229466A, “Sesquiterpene derivatives having anti-complementary activity” (Otsuka Pharmaceutical Co., Ltd., priority 1977, dated 1980)
# “And” between values parts separate entries of the source, which are not always exact repeats. Equal entries are not always repeated.
# What was measured:
# [1] = Acute toxicity on intravenous administration to mice; details: mouse, in vivo
# [2] = system: complement serum (guinea pig complement); assay: Anti-complement activity: 50% inhibition of hemolysis of sensitized erythrocytes; format: cell-based; details: 37° C., 60 minutes, guinea pig complement diluted 150 times; for IC50: Cavia porcellus, Erythrocyte, 1 h, OD413, read-out: Anti-Complement Activity Value (50% hemolysis inhibitory activity value)
# Method: The anti-complement activity was measured and confirmed by the testing method described in Meneki Kagaku (Immuno-Chemistry), Yuichi Yamamura et al., Ed. pages 830-834, Asakura Shoten, Tokyo, Japan (1973). Specifically,a test tube was charged with 0.5 ml of an aqueous dispersion of each of the test compounds, 0.5 ml of sensitized erythrocytes (EA) containing 1×10^8 cells/ml, 1 ml of a 5-fold diluted solution of a Veronal buffer solution containing gelatin, Ca^++ and Mg^++ (GVB^++), and 0.5 ml of complement serum (guinea pig complement) diluted to 150 times with the GVB^++. The mixture was maintained hot at 37° C. for 60 minutes. Then, 5 ml of an ice-cold physiological saline solution was added thereto, and the mixture was centrifuged. […] The 50% hemolysis inhibitory activity value (γ/ml) measured by the above method is shown in Table 2 below for each test compound.
# [3] = system: Heymann-type Nephritis; assay: Therapeutic effects on Heymann-type nephritis (proteinuria); format: in vivo, male Wistar rats; details: for activity of curing Heymann-type nephritis: test of Table 4, result in words; for amount of proteinurea, Average: average of 3 replications; for amount of proteinurea: individual replication
# Method: Male Wistar rats with a body weight of 180 to 200 g were used in the test. Rat kidney cortex was extracted, and homogenized with an equal quantity by volume of a physiological saline solution. The homogenate was centrifuged at 1500 G for 1 hour. The supernatant liquid was purified in accordance with the method of T. S. […] The resulting mixture was injected intraperitoneally into isologous rats in an amount of 0.5 ml per rat. […] (This period was about 6 to 8 weeks.) […] CP was used as a comparison compound, and physiological saline solution was used as a control. Three replications were conducted for each test compound.
# [4] = system: Nephrotoxin-Type Nephritis; assay: Therapeutic effect on nephrotoxin-type nephritis (proteinuria); format: in vivo, male Wistar rats; details: for inhibition of the primary reaction of nephrotoxin-type nephritis: same test as Table 3; for amount of proteinurea, Average: average of 3 replications; for amount of proteinurea, Average / amount of proteinurea: 5 mg per rat i.p. once daily, 7 days; for amount of proteinurea: individual replication
# From the text: Rat nephrotoxin ("NT" for brevity) was obtained as described below. Rat kidney cortex was homogenized with an equal quantity of physiological saline. The homogenized mixture was mixed with Freund's complete adjuvant (a product of Difco Company) in a volume ratio of 1:1. Two milliliters of the resulting mixture was intramuscularly injected into a rabbit (body weight 3,100 g) to immunize the rabbit. A month and a half later, blood was taken from the heart of the rabbit and serum was obtained. The resulting serum was inactivated at 56° C. for 30 minutes, then salted out with a 40% saturated aqueous solution of ammonium sulfate, and fractionated. The γ-globulin (IgG) fraction was collected to obtain NT.
# The evaluation was carried out using male Wistar rats with a body weight of 150 to 160 g with three replications for each test compound. The test compound was intraperitoneally administered once every 24 hours for seven days. One hour after the administration of the test compound on the third day, the NT was applied. The NT was intravenously injected in an amount of 1 ml at a tail vein of each rat. Chlorophyllin (CP) was used as a comparison compound, and physiological saline solution was used as a control.
# The proteinuria level (total amount excreted into the urine over a 24 hour period) was measured using turbidometry employing bovine serum albumin as a control by means of sulfosalicylic acid.
# [5] = Before Administration, group of 5 mg per rat i.p.
# [6] = Day 1, 5 mg per rat i.p. once a day, 7 days
# [7] = Day 4, 5 mg per rat i.p. once a day, 7 days
# [8] = Day 7, 5 mg per rat i.p. once a day, 7 days
# [9] = Day 14, 5 mg per rat i.p. once a day, 7 days
# [10] = Day 21, 5 mg per rat i.p. once a day, 7 days
molecule,measurement,setting,value
"CC1CCC2C(C)(C)C(O)C(O)CC2(C)C12Cc1c(O)cc(O)c(O)c1O2 (stereo not shown) [(2), 6,7-Dihydroxy-2,5,5,8a-tetramethyl-1,2,3,4,4a,5,6,7,8,8a-decahydronaphthalene-1-spiro-2'-(4',6',7'-trihydroxy-2',3'-dihydrobenzofuran)]",LD50,[1],150 mg/kg
same,IC50,[2],80 µg/mL
"CC1CCC2C(C)(C)C(O)C(O)CC2(C)C12Cc1c(O)cc(C=C(C#N)C#N)c(C=C(C#N)C#N)c1O2 (stereo not shown) [(3), 6,7-Dihydroxy-2,5,5,8a-tetramethyl-1,2,3,4,4a,5,6,7,8,8a-decahydronaphthalene-1-spiro-2'-[6',7'-di-(2,2-dicyanovinyl)-4'-hydroxy-2',3'-dihydrobenzofuran]]",LD50,[1],200 mg/kg
same,IC50,[2],40 µg/mL
"CCOC(=O)C(C#N)=Cc1cc(O)c2c(c1C=C(C#N)C(=O)OCC)OC1(C2)C(C)CCC2C(C)(C)C(O)C(O)CC21C (stereo not shown) [(4), 6,7-Dihydroxy-2,5,5,8a-tetramethyl-1,2,3,4,4a,5,6,7,8,8a-decahydronaphthalene-1-spiro-2'-[6',7'-di-(2-cyano-2-ethoxycarbonylvinyl)-4'-hydroxy-2',3'-dihydrobenzofuran]]",LD50,[1],200 mg/kg
same,IC50,[2],80 µg/mL
"CC1CCC2C(C)(C)C(O)C(O)CC2(C)C12Cc1c(O)cc(CO)c(C(=O)O)c1O2 (stereo not shown) [(8), 6,7-Dihydroxy-2,5,5,8a-tetramethyl-1,2,3,4,4a,5,6,7,8,8a-decahydronaphthalene-1-spiro-2'-(7'-carboxy-6'-hydroxymethyl-4'-hydroxy-2',3'-dihydrobenzofuran)]",activity of curing Heymann-type nephritis,[3],a substantial activity of curing Heymann-type nephritis
same,IC50,[2],125 µg/mL
same,inhibition of the primary reaction of nephrotoxin-type nephritis,[4]; result in words,found to inhibit the primary reaction
"CC1CCC2C(C)(C)C(O)C(O)CC2(C)C12Cc1c(O)cc(CO)c(CO)c1O2 (stereo not shown) [(11), 6,7-Dihydroxy-2,5,5,8a-tetramethyl-1,2,3,4,4a,5,6,7,8,8a-decahydronaphthalene-1-spiro-2'-(6',7'-dihydroxymethyl-4'-hydroxy-2',3'-dihydrobenzofuran)]",activity of curing Heymann-type nephritis,[3],a substantial activity of curing Heymann-type nephritis
same,IC50,[2],500 µg/mL
same,inhibition of the primary reaction of nephrotoxin-type nephritis,[4]; result in words,found to inhibit the primary reaction
"COc1cc(CO)c(CO)c2c1CC1(O2)C(C)CCC2C(C)(C)C(O)C(O)CC21C (stereo not shown) [(12), 6,7-Dihydroxy-2,5,5,8a-tetramethyl-1,2,3,4,4a,5,6,7,8,8a-decahydronaphthalene-1-spiro-2'-(6',7'-dihydroxymethyl-4'-methoxy-2',3'-dihydrobenzofuran)]",activity of curing Heymann-type nephritis,[3],a substantial activity of curing Heymann-type nephritis
same,IC50,[2],250 µg/mL
same,inhibition of the primary reaction of nephrotoxin-type nephritis,[4]; result in words,found to inhibit the primary reaction
"CC(=O)OCc1cc(OC(C)=O)c2c(c1COC(C)=O)OC1(C2)C(C)CCC2C(C)(C)C(OC(C)=O)C(OC(C)=O)CC21C (stereo not shown) [Compound No. (25), 6,7-Diacetyloxy-2,5,5,8a-tetramethyl-1,2,3,4,4a,5,6,7,8,8a-decahydronaphthalene-1-spiro-2'-(6',7'-diacetyloxymethyl-4'-acetyloxy-2',3'-dihydrobenzofuran)]",activity of curing Heymann-type nephritis,[3],a substantial activity of curing Heymann-type nephritis
same,IC50,[2],600 µg/mL
same,inhibition of the primary reaction of nephrotoxin-type nephritis,[4]; result in words,found to inhibit the primary reaction
"CC1CCC2C(C)(C)C3OC(C)(C)OC3CC2(C)C12Cc1c(O)cc3c(c1O2)C(=O)OC3 (stereo not shown) [Compound No. (62), 4-Hydroxy-8-oxo-2,3,6,8-tetrahydro-furo[3,4-g]benzofuran-2-spiro-1'-(6',7'-isopropylidenedioxy-2',5',5',8'a-tetramethyl-1',2',3',4',4'a,5',6',7',8',8'a-decahydronaphthalene)]",activity of curing Heymann-type nephritis,[3],a substantial activity of curing Heymann-type nephritis
same,IC50,[2],450 µg/mL
same,inhibition of the primary reaction of nephrotoxin-type nephritis,[4]; result in words,found to inhibit the primary reaction
Chlorophyllin [reference compound],"amount of proteinurea, Average",[3]; [5],123 mg/day
same,amount of proteinurea,[3]; [5],123 mg/day and 117 mg/day and 129 mg/day
same,"amount of proteinurea, Average",[3]; [6],115 mg/day
same,amount of proteinurea,[3]; [6],116 mg/day and 108 mg/day and 121 mg/day
same,"amount of proteinurea, Average",[3]; [7],62 mg/day
same,amount of proteinurea,[3]; [7],72 mg/day and 63 mg/day and 52 mg/day
same,"amount of proteinurea, Average",[3]; [8],28 mg/day
same,amount of proteinurea,[3]; [8],32 mg/day and 29 mg/day and 22 mg/day
same,"amount of proteinurea, Average",[3]; [9],14 mg/day
same,amount of proteinurea,[3]; [9],16 mg/day and 12 mg/day and 15 mg/day
same,"amount of proteinurea, Average",[3]; [10],10 mg/day
same,amount of proteinurea,[3]; [10],10 mg/day and 8 mg/day and 13 mg/day
same,Anti-Complement Activity Value (50% hemolysis inhibitory activity value),[2]; OD413,40 µg/mL
same,"amount of proteinurea, Average",[4]; Day 1,3.4 mg/day
same,amount of proteinurea,[4]; Day 1,2.4 mg/day and 4.4 mg/day and 3.2 mg/day
same,"amount of proteinurea, Average",[4]; Day 4,2.1 mg/day
same,amount of proteinurea,[4]; Day 4,1.5 mg/day and 2.6 mg/day and 2.1 mg/day
same,"amount of proteinurea, Average",[4]; Day 7,2.0 mg/day
same,amount of proteinurea,[4]; Day 7,0.9 mg/day and 1.7 mg/day and 3.5 mg/day
same,"amount of proteinurea, Average",[4]; Day 10,8 mg/day
same,amount of proteinurea,[4]; Day 10,9 mg/day and 8 mg/day and 6 mg/day
same,amount of proteinurea compared with healthy rat,"[4]; from administration of NT to 10 days after, result in words",substantially the same as that of a healthy rat
